Where “and” joins values, the source holds several entries; their conditions need not be identical. Equal values may be shown once. Entries after “also recorded” stand apart in the source; their conditions may differ.
Test: Safety and tolerability, Part A single ascending-dose phase in healthy participants
Type: in vivo, human
Method: A further two cohorts were recruited. […] Each individual participated in one treatment period only, with the exception of the food-effect cohort (cohort A3) in which there were two treatment periods separated by at least 7 days washout. Participants resided at the Clinical Research Unit (CRU) from 1 day ahead of dosing (day − 1) to day 3 and returned for a follow-up visit 5–7 days after their final dose. For all cohorts, doses were administered in the fasted state in the morning of day 1 of Treatment Period 1. In the food-effect cohort, doses were given 30 min after the start of a high-fat breakfast (973 calories total: approximately 150 protein calories, 250 carbohydrate calories, and 500–600 fat calories) on day 1 of Treatment Period 2. For cohorts A1 to A5 in Treatment Period 1, dosing occurred such that one pair (one active and one placebo) were dosed at least 24 h before the remaining participants. Continuation to dose those who remained was at the investigator’s discretion. Escalating doses were administered following satisfactory sponsor and investigator review of the safety and tolerability data (up to 48 h post-final dose) and PK data (up to 24 h post-final dose) from the lower dose levels.
Safety and tolerability assessments included adverse event (AE) monitoring, physical examinations, laboratory assessments (hematology, clinical chemistry, and urinalysis), vital signs (blood pressure, pulse rate, and body temperature) and ECG.
No formal statistical assessment was performed for the safety analysis.

[1] = single and multiple doses, Parts A and B
[2] = single dose 5 mg (1 × 5 mg), fasted
[3] = single dose 20 mg (4 × 5 mg), fasted
[4] = single dose 50 mg (1 × 50 mg), fasted
[5] = single dose 50 mg (1 × 50 mg), fed
[6] = single dose 50 mg (10 × 5 mg), fasted
[7] = single dose 100 mg (2 × 50 mg), fasted
[8] = single dose 200 mg (4 × 50 mg), fasted
[9] = single dose 400 mg (8 × 50 mg), fasted
[10] = treatment-emergent period, Parts A and B

OC[C@H]1O[C@H](Sc2cncc(Br)c2)[C@H](O)[C@@H](n2cc(-c3cc(F)c(F)c(F)c3)nn2)[C@H]1O [GB1211]
TEAE Pain, participants (Part A 100 mg, fasted): 0 n (%) | TEAE Rash, participants (Part A 100 mg, fasted): 0 n (%) | TEAE Respiratory, thoracic and mediastinal disorders, participants (Part A 100 mg, fasted): 0 n (%) | TEAE Skin and subcutaneous tissue disorders, participants (Part A 100 mg, fasted): 0 n (%) | TEAE Wound, participants (Part A 100 mg, fasted): 0 n (%) | TEAE Back pain, participants (Part A 200 mg, fasted): 0 n (%) | TEAE Constipation, participants (Part A 200 mg, fasted): 0 n (%) | TEAE Cough, participants (Part A 200 mg, fasted): 0 n (%) | TEAE Decreased appetite, participants (Part A 200 mg, fasted): 0 n (%) | TEAE Diarrhea, participants (Part A 200 mg, fasted): 0 n (%) | TEAE Dry mouth, participants (Part A 200 mg, fasted): 0 n (%) | TEAE Dry skin, participants (Part A 200 mg, fasted): 0 n (%) | TEAE Dyspepsia, participants (Part A 200 mg, fasted): 0 n (%) | TEAE Gastrointestinal disorders, participants (Part A 200 mg, fasted): 0 n (%) | TEAE General disorders and administration site conditions, participants (Part A 200 mg, fasted): 0 n (%) | TEAE Headache, participants (Part A 200 mg, fasted): 0 n (%) | TEAE Infections and infestations, participants (Part A 200 mg, fasted): 0 n (%) | TEAE Injury, poisoning and procedural complications, participants (Part A 200 mg, fasted): 0 n (%) | TEAE Medical device site reaction, participants (Part A 200 mg, fasted): 0 n (%) | TEAE Metabolism and nutrition disorders, participants (Part A 200 mg, fasted): 0 n (%) | TEAE Musculoskeletal and connective tissue disorders, participants (Part A 200 mg, fasted): 0 n (%) | TEAE Nasopharyngitis, participants (Part A 200 mg, fasted): 0 n (%) | TEAE Nervous system disorders, participants (Part A 200 mg, fasted): 0 n (%) | TEAE Pain, participants (Part A 200 mg, fasted): 0 n (%) | TEAE Rash, participants (Part A 200 mg, fasted): 0 n (%) | TEAE Respiratory, thoracic and mediastinal disorders, participants (Part A 200 mg, fasted): 0 n (%) | TEAE Skin and subcutaneous tissue disorders, participants (Part A 200 mg, fasted): 0 n (%) | TEAE Wound, participants (Part A 200 mg, fasted): 0 n (%) | TEAE Back pain, participants (Part A 400 mg, fasted): 0 n (%) | TEAE Constipation, participants (Part A 400 mg, fasted): 0 n (%) | TEAE Cough, participants (Part A 400 mg, fasted): 0 n (%) | TEAE Decreased appetite, participants (Part A 400 mg, fasted): 0 n (%) | TEAE Diarrhea, participants (Part A 400 mg, fasted): 0 n (%) | TEAE Dry mouth, participants (Part A 400 mg, fasted): 0 n (%) | TEAE Dry skin, participants (Part A 400 mg, fasted): 0 n (%) | TEAE Dyspepsia, participants (Part A 400 mg, fasted): 0 n (%) | TEAE Gastrointestinal disorders, participants (Part A 400 mg, fasted): 0 n (%) | TEAE General disorders and administration site conditions, participants (Part A 400 mg, fasted): 0 n (%) | TEAE Headache, participants (Part A 400 mg, fasted): 0 n (%) | TEAE Infections and infestations, participants (Part A 400 mg, fasted): 0 n (%) | TEAE Injury, poisoning and procedural complications, participants (Part A 400 mg, fasted): 0 n (%) | TEAE Medical device site reaction, participants (Part A 400 mg, fasted): 0 n (%) | TEAE Metabolism and nutrition disorders, participants (Part A 400 mg, fasted): 0 n (%) | TEAE Musculoskeletal and connective tissue disorders, participants (Part A 400 mg, fasted): 0 n (%) | TEAE Nasopharyngitis, participants (Part A 400 mg, fasted): 0 n (%) | TEAE Nervous system disorders, participants (Part A 400 mg, fasted): 0 n (%) | TEAE Pain, participants (Part A 400 mg, fasted): 0 n (%) | TEAE Rash, no. of AEs (Part A 400 mg, fasted): 1 | TEAE Rash, participants (Part A 400 mg, fasted): 1 (16.7%) n (%) | TEAE Respiratory, thoracic and mediastinal disorders, participants (Part A 400 mg, fasted): 0 n (%) | TEAE Skin and subcutaneous tissue disorders, no. of AEs (Part A 400 mg, fasted): 1 | TEAE Skin and subcutaneous tissue disorders, participants (Part A 400 mg, fasted): 1 (16.7%) n (%) | TEAE Wound, participants (Part A 400 mg, fasted): 0 n (%) | Number of TEAEs, GB1211 group (Part A, all GB1211 doses): 11 | Participants with TEAEs, GB1211 group (Part A, all GB1211 doses): 8 | Safety concerns [1]: No safety concerns were identified | Tolerability [1]: well tolerated | Number of TEAEs [2]: 4 | Participants discontinued due to TEAEs [2]: 0 n (%) | Participants with SAEs [2]: 0 n (%) | Participants with TEAEs [2]: 3 (50.0) n (%) and 3 (50.0%) n (%) | Severity (all TEAEs): Mild [2]: 3 (50.0) n (%) | Severity (all TEAEs): Moderate [2]: 0 n (%) | Severity (all TEAEs): Severe [2]: 0 n (%) | Severity (all TEAEs): Total [2]: 3 (50.0) n (%) | Severity (possibly related to study treatment): Mild [2]: 1 (16.7) n (%) | Severity (possibly related to study treatment): Moderate [2]: 0 n (%) | Severity (possibly related to study treatment): Severe [2]: 0 n (%) | Severity (possibly related to study treatment): Total [2]: 1 (16.7) n (%) | Number of TEAEs [3]: 1 | Participants discontinued due to TEAEs [3]: 0 n (%) | Participants with SAEs [3]: 0 n (%) | Participants with TEAEs [3]: 1 (16.7) n (%) and 1 (16.7%) n (%) | Severity (all TEAEs): Mild [3]: 1 (16.7) n (%) | Severity (all TEAEs): Moderate [3]: 0 n (%) | Severity (all TEAEs): Severe [3]: 0 n (%) | Severity (all TEAEs): Total [3]: 1 (16.7) n (%) | Severity (possibly related to study treatment): Mild [3]: 0 n (%) | Severity (possibly related to study treatment): Moderate [3]: 0 n (%) | Severity (possibly related to study treatment): Severe [3]: 0 n (%) | Severity (possibly related to study treatment): Total [3]: 0 n (%) | Number of TEAEs [4]: 1 | Participants discontinued due to TEAEs [4]: 0 n (%) | Participants with SAEs [4]: 0 n (%) | Participants with TEAEs [4]: 1 (16.7) n (%) and 1 (16.7%) n (%) | Severity (all TEAEs): Mild [4]: 1 (16.7) n (%) | Severity (all TEAEs): Moderate [4]: 0 n (%) | Severity (all TEAEs): Severe [4]: 0 n (%) | Severity (all TEAEs): Total [4]: 1 (16.7) n (%) | Severity (possibly related to study treatment): Mild [4]: 0 n (%) | Severity (possibly related to study treatment): Moderate [4]: 0 n (%) | Severity (possibly related to study treatment): Severe [4]: 0 n (%) | Severity (possibly related to study treatment): Total [4]: 0 n (%) | Number of TEAEs [5]: 1 | Participants discontinued due to TEAEs [5]: 0 n (%) | Participants with SAEs [5]: 0 n (%) | Participants with TEAEs [5]: 1 (16.7) n (%) and 1 (16.7%) n (%) | Severity (all TEAEs): Mild [5]: 0 n (%) | Severity (all TEAEs): Moderate [5]: 1 n (%) and 1 (16.7) n (%) | Severity (all TEAEs): Severe [5]: 0 n (%) | Severity (all TEAEs): Total [5]: 1 (16.7) n (%) | Severity (possibly related to study treatment): Mild [5]: 0 n (%) | Severity (possibly related to study treatment): Moderate [5]: 0 n (%) | Severity (possibly related to study treatment): Severe [5]: 0 n (%) | Severity (possibly related to study treatment): Total [5]: 0 n (%) | Number of TEAEs [6]: 1 | Participants discontinued due to TEAEs [6]: 0 n (%) | Participants with SAEs [6]: 0 n (%) | Participants with TEAEs [6]: 1 (16.7) n (%) and 1 (16.7%) n (%) | Severity (all TEAEs): Mild [6]: 1 (16.7) n (%) | Severity (all TEAEs): Moderate [6]: 0 n (%) | Severity (all TEAEs): Severe [6]: 0 n (%) | Severity (all TEAEs): Total [6]: 1 (16.7) n (%) | Severity (possibly related to study treatment): Mild [6]: 0 n (%) | Severity (possibly related to study treatment): Moderate [6]: 0 n (%) | Severity (possibly related to study treatment): Severe [6]: 0 n (%) | Severity (possibly related to study treatment): Total [6]: 0 n (%) | Number of TEAEs [7]: 2 | Participants discontinued due to TEAEs [7]: 0 n (%) | Participants with SAEs [7]: 0 n (%) | Participants with TEAEs [7]: 1 (16.7) n (%) and 1 (16.7%) n (%) | Severity (all TEAEs): Mild [7]: 1 (16.7) n (%) | Severity (all TEAEs): Moderate [7]: 0 n (%) | Severity (all TEAEs): Severe [7]: 0 n (%) | Severity (all TEAEs): Total [7]: 1 (16.7) n (%) | Severity (possibly related to study treatment): Mild [7]: 1 (16.7) n (%) | Severity (possibly related to study treatment): Moderate [7]: 0 n (%) | Severity (possibly related to study treatment): Severe [7]: 0 n (%) | Severity (possibly related to study treatment): Total [7]: 1 (16.7) n (%) | Number of TEAEs [8]: 0 | Participants discontinued due to TEAEs [8]: 0 n (%) | Participants with SAEs [8]: 0 n (%) | Participants with TEAEs [8]: 0 n (%) | Severity (all TEAEs): Mild [8]: 0 n (%) | Severity (all TEAEs): Moderate [8]: 0 n (%) | Severity (all TEAEs): Severe [8]: 0 n (%) | Severity (all TEAEs): Total [8]: 0 n (%) | Severity (possibly related to study treatment): Mild [8]: 0 n (%) | Severity (possibly related to study treatment): Moderate [8]: 0 n (%) | Severity (possibly related to study treatment): Severe [8]: 0 n (%) | Severity (possibly related to study treatment): Total [8]: 0 n (%) | Number of TEAEs [9]: 1 | Participants discontinued due to TEAEs [9]: 0 n (%) | Participants with SAEs [9]: 0 n (%) | Participants with TEAEs [9]: 1 (16.7) n (%) and 1 (16.7%) n (%) | Severity (all TEAEs): Mild [9]: 1 (16.7) n (%) | Severity (all TEAEs): Moderate [9]: 0 n (%) | Severity (all TEAEs): Severe [9]: 0 n (%) | Severity (all TEAEs): Total [9]: 1 (16.7) n (%) | Severity (possibly related to study treatment): Mild [9]: 1 (16.7) n (%) | Severity (possibly related to study treatment): Moderate [9]: 0 n (%) | Severity (possibly related to study treatment): Severe [9]: 0 n (%) | Severity (possibly related to study treatment): Total [9]: 1 (16.7) n (%) | Clinical laboratory evaluation, vital signs, ECG or physical examination (single or multiple GB1211 doses): no treatment- or dose-related trend; also recorded: no clinically significant finding | Serious AEs or severe AEs [10]: no severe TEAEs or serious AEs reported | Study discontinuations due to AEs [10]: no study discontinuations due to AEs
